Measurements taken from ChEMBL document CHEMBL1157231, “Antibacterial compounds from Glycyrrhiza uralensis” (2006).

Tested on: Streptococcus mutans
Test: Antibacterial activity against Streptococcus mutans ATCC 25175 after 16 to 20 hrs by NCCLS method
Format: functional

| SMILES | Activity |
| --- | --- |
| COc1cc(O)cc2c1-c1oc3c4c(ccc3c1CO2)OC(C)(C)C=C4 [GLYCYRRHIZOL B] | 32 µg/mL |
| COc1c(CC=C(C)C)c(O)cc2c1-c1oc3cc(O)c(CC=C(C)C)cc3c1CO2 [GLYCYRRHIZOL A] | 1 µg/mL |
| COc1cc2oc(=O)c3c4ccc(O)cc4oc3c2c(OC)c1CC=C(C)C | 500 µg/mL |
| CC(C)=CCc1c(O)c(CC=C(C)C)c2occ(-c3ccc(O)cc3)c(=O)c2c1O | 2 µg/mL |
| COc1c2c(cc3oc(=O)c4c5ccc(O)cc5oc4c13)OC(C)(C)CC2 [ISOGLYCYROL] | 500 µg/mL |
| COc1cc2occ(-c3ccc(O)cc3)c(=O)c2c(O)c1CC=C(C)C [GANCAONIN G] | 125 µg/mL |
